Where “and” joins values, the source holds several entries; their conditions need not be identical. Equal values may be shown once. Read-outs that look alike come from different tables or passages of the source.
Legend:
[1] = molecular target: T1, peripheral benzodiazepine receptors in brain (Homo sapiens, UniProt P30536); conditions: read-out: ability to displace bound PK 11195 from peripheral benzodiazepine receptors (Ki); cited from earlier work
T1 construct: host or cells: brain (Doble et al., 1987)

[2] = tested on: cultured rat peritoneal macrophages; assay: Respiratory burst in cultured rat peritoneal macrophages activated by opsonized zymosan; format: cell-based; conditions: Peritoneal macrophage; for activity at 1000 µM: 10^-3 M
Source text: Its main function is to protect the body from hostile invaders by generating superoxide radicals, but inappropriate activation can damage host tissue. Oxidative stress is believed to be one of the more harmful concomitants of inflammation. The respiratory burst system can be activated in cultured peritoneal macrophages in multiple ways, including exposure to zymosan particles opsonized by complement proteins (Klegeris and McGeer, 1994).
For methods see Klegeris and McGeer, 1994.

[3] = molecular target: T2, peripheral benzodiazepine receptors, human Alzheimer and control cortical tissue (Homo sapiens, UniProt P30536); assay: Specific high affinity binding of PK 11195 to Alzheimer and control cortical tissue; conditions: PK 11195 at 3 nM
T2 construct: from tissue; host or cells: human cortical brain tissue, Alzheimer and neurologically normal control
Source text: The standard method of Schoemaker et al., 1983 was employed.

[4] = molecular target: T3, peripheral benzodiazepine receptors, mouse peritoneal macrophages (Mus musculus, UniProt P50637); conditions: read-out: affinity; cited from earlier work
T3 construct: host or cells: mouse peritoneal macrophages (Zavala and Lenfant, 1987b)

MRL-lpr mice = assay: CFA-induced disease in MRL-lpr mice, joint histopathology; format: in vivo, mouse; conditions: for Severity of Disease Sign Total / Severity of Disease Sign (1) subsynovial inflammation / Severity of Disease Sign (2) synovial hyperplasia / Severity of Disease Sign (3) pannus formation / Severity of Disease Sign (4) bone destruction: day 30, mean ± S.D.; for Severity of Disease Sign (1) subsynovial inflammation / Severity of Disease Sign (2) synovial hyperplasia / Severity of Disease Sign (3) pannus formation / Severity of Disease Sign (4) bone destruction: scale 0-4
Source text: MRL-lpr mice are a widely studied strain which spontaneously develop a particularly severe autoimmune disorder. Pathologies that are found in a variety of human idiopathic inflammatory and autoimmune diseases are reproduced in these animals. They are therefore considered to be an outstanding model for such individual human diseases, although the pathology represents a combination of several of them. They are regarded as the best animal model for rheumatoid arthritis (Koopman and Gay, 1988) , systemic lupus erythematous (Bartlett et al., 1988)., and Sjogren's syndrome (Hayashi et al., 1994). […] They develop behavioral and neurological deficits (Sakic et al., 1993), as well as evidence of CNS inflammation (Vogelweid et al., 1991) which is seen in isolation in such diseases as Alzheimer type dementia and multiple sclerosis, but is also part of the syndrome in systemic lupus erythematosus and Sjogren's syndrome. The model is considered to be a particularly demanding one for screening antiinflammatory agents because of the severity and comprehensiveness of the disease pathology. […] The lesions include synovial inflammation, synovial cell proliferation, pannus formation, and articular cartilage erosion and bone destruction. Only powerful antiinflammatory agents will inhibit the devastating changes that accompany this genetic disorder. Mice of the MRL-lpr strain spontaneously develop a mild form of the disease at several months of age. The onset can be accelerated by injection of complete Freund's adjuvant (CFA) supplemented to 10 mg/ml with heat-inactivated M. tuberculosis, at 13-14 weeks of age, with 67-82% of animals becoming affected within 1 month (Ratkay et al., 1994; Ratkay et al., 1993).
Daily injections were continued until day 14. The animals were sacrificed at day 30 and joint histopathology assessed. […] The results were compared with those in littermates receiving CFA only (N=7). Following sacrifice, animals were evaluated for subsynovial inflammation, synovial hyperplasia, cartilage destruction and pannus formation, and bone destruction.
^A The histopathological changes were assessed on a scale of 0 (no
change) to 4 (severe change) for the following indices: (1) subsynovial
inflammation; (2) synovial hyperplasia; (3) pannus formation; and (4) bon
destruction. For methods see Ratkay et al., 1994.

[5] = molecular target: T2, peripheral benzodiazepine receptors, human Alzheimer and control cortical tissue; conditions: McGeer et al., 1988; cited from earlier work
[6] = 10^-4 M, after opsonized zymosan, read-out: Respiratory burst, Percent of Control (± S.E.), substance given After OZ
[7] = 10^-4 M, before opsonized zymosan, read-out: Respiratory burst, Percent of Control (± S.E.), substance given Before OZ
[8] = 10^-5 M, before opsonized zymosan, read-out: Respiratory burst, Percent of Control (± S.E.), substance given Before OZ
[9] = after opsonized zymosan, read-out: Respiratory burst, Percent of Control (± S.E.), substance given After OZ
[10] = before opsonized zymosan, read-out: Respiratory burst, Percent of Control (± S.E.), substance given Before OZ
[11] = read-out: Respiratory burst, Percent of Control (± S.E.), substance given After OZ
[12] = read-out: Respiratory burst, Percent of Control (± S.E.), substance given Before OZ

T2 sequence (P30536 whole entry): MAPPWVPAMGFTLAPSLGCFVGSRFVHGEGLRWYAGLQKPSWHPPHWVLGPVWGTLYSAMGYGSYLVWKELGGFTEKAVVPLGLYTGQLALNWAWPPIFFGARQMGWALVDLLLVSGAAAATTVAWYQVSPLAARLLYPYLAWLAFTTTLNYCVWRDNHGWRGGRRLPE
T1 sequence (P30536 whole entry): as above
T3 sequence (P50637 whole entry): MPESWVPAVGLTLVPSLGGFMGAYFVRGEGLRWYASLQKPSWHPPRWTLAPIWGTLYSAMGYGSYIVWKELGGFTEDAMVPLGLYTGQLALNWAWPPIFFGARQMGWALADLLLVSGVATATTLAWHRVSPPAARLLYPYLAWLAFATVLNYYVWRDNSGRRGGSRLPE

SMILES: CCN(CC)C(=O)C(C)Cc1cc(-c2ccccc2)nc2ccccc12 (single isomer, unassigned) [PK-14067, 1-N,N-diethyl-a-methyl-2-phenylquinoline-4-propranamide]
- Ki [1]: 44 nM

SMILES: Nc1ccc(S(=O)(=O)c2ccc(N)cc2)cc1 [Dapsone, dapsone]
- activity at 100 µM [2, 6]: 90.3 ± 6.2%
- activity at 100 µM [2, 7]: 73.6 ± 4.6%
- activity at 10 µM ([2]; 10^-5 M, after opsonized zymosan, read-out: Respiratory burst, Percent of Control (± S.E.), substance given After OZ): 96.4 ± 1.6%
- activity at 10 µM [2, 8]: 94.7 ± 1.3%

SMILES: COc1ccc2c(c1)c(CC(=O)O)c(C)n2C(=O)c1ccc(Cl)cc1 [Indomethacin, indomethacin]
- activity at 1000 µM [2, 9]: 64.8 ± 9.4%
- activity at 1000 µM [2, 10]: 36 ± 12.5%
- activity at 100 µM [2, 6]: 101 ± 2.1%
- activity at 100 µM [2, 7]: 86.3 ± 10.9%
- activity at 10 µM [2, 8]: 101 ± 3.5%

SMILES: CCC(C)N(C)C(=O)c1cc2ccccc2c(-c2ccccc2Cl)n1 (stereo not drawn) [PK 11195, 1-(2-chlorophenyl)-N-methyl-N-(1-methylpropyl)-3-isoquinolinecarboxamide]
- activity at 1 µM [2, 11]: 97.9 ± 0.2%
- activity at 10 µM [2, 11]: 83.5 ± 8.7%
- activity at 100 µM [2, 11]: 47.1 ± 13.6%
- activity at 1 µM [2, 12]: 99 ± 5.6%
- activity at 10 µM [2, 12]: 87.9 ± 5.5%
- activity at 100 µM [2, 12]: 48.9 ± 10.8%
- inhibition at 100 µM ([2]; read-out: inhibition of respiratory burst): > 50%
- Specific High Affinity Binding, Alzheimer cortical tissue, Means ± S.E. ([3]; Alzheimer): 449 ± 25 fentamoles/mg protein
- Specific High Affinity Binding, Alzheimer cortical tissue, individual cases ([3]; Alzheimer): 480 fentamoles/mg protein and 585 fentamoles/mg protein and 400 fentamoles/mg protein and 450 fentamoles/mg protein and 395 fentamoles/mg protein and 408 fentamoles/mg protein and 422 fentamoles/mg protein
- Specific High Affinity Binding, Control cortical tissue, Means ± S.E. ([3]; Control): 165 ± 25 fentamoles/mg protein
- Specific High Affinity Binding, Control cortical tissue, individual cases ([3]; Control): 201 fentamoles/mg protein and 94 fentamoles/mg protein and 265 fentamoles/mg protein and 118 fentamoles/mg protein and 141 fentamoles/mg protein and 111 fentamoles/mg protein and 222 fentamoles/mg protein
- Kd [4]: 5.6 nM
- Severity of Disease Sign Total (MRL-lpr mice; 0.1 mg/kg s.c. daily to day 14): 1.40 ± 0.48
- Severity of Disease Sign (1) subsynovial inflammation (MRL-lpr mice; 0.1 mg/kg s.c. daily to day 14): 0.70 ± 0.26
- Severity of Disease Sign (2) synovial hyperplasia (MRL-lpr mice; 0.1 mg/kg s.c. daily to day 14): 0.70 ± 0.26
- Severity of Disease Sign (3) pannus formation (MRL-lpr mice; 0.1 mg/kg s.c. daily to day 14): 0.00 ± 0.00
- Severity of Disease Sign (4) bone destruction (MRL-lpr mice; 0.1 mg/kg s.c. daily to day 14): 0.00 ± 0.00
- Severity of Disease Sign Total (MRL-lpr mice; 0.5 mg/kg s.c. daily to day 14): 1.25 ± 0.53
- Severity of Disease Sign (1) subsynovial inflammation (MRL-lpr mice; 0.5 mg/kg s.c. daily to day 14): 0.62 ± 0.26
- Severity of Disease Sign (2) synovial hyperplasia (MRL-lpr mice; 0.5 mg/kg s.c. daily to day 14): 0.50 ± 0.27
- Severity of Disease Sign (3) pannus formation (MRL-lpr mice; 0.5 mg/kg s.c. daily to day 14): 0.00 ± 0.00
- Severity of Disease Sign (4) bone destruction (MRL-lpr mice; 0.5 mg/kg s.c. daily to day 14): 0.12 ± 0.12
- Severity of Disease Sign Total (MRL-lpr mice; 1 mg/kg s.c. daily to day 14): 1.14 ± 0.14
- Severity of Disease Sign (1) subsynovial inflammation (MRL-lpr mice; 1 mg/kg s.c. daily to day 14): 0.43 ± 0.20
- Severity of Disease Sign (2) synovial hyperplasia (MRL-lpr mice; 1 mg/kg s.c. daily to day 14): 0.71 ± 0.18
- Severity of Disease Sign (3) pannus formation (MRL-lpr mice; 1 mg/kg s.c. daily to day 14): 0.00 ± 0.00
- Severity of Disease Sign (4) bone destruction (MRL-lpr mice; 1 mg/kg s.c. daily to day 14): 0.00 ± 0.00
- reduction of the total histopathological score observed in control mice (MRL-lpr mice; even at the lowest dose of 0.1 mg/kg): more than 70%
- efficacy compared with results of Ratkay et al., 1994 (MRL-lpr mice; lowest dose 0.1 mg/kg): more effective than ten times that dose of indomethacin, forty times that dose of cyclosporin

SMILES: C[C@]12C=CC(=O)C=C1CC[C@@H]1[C@@H]2C(=O)C[C@@]2(C)[C@H]1CC[C@]2(O)C(=O)CO [Prednisone, prednisone]
- activity at 1000 µM [2, 9]: 67 ± 11.6%
- activity at 1000 µM [2, 10]: 62.5 ± 8.1%
- activity at 100 µM [2, 6]: 102 ± 4.9%
- activity at 100 µM [2, 7]: 88.8 ± 7.2%

SMILES: CN1C(=O)CN=C(c2ccc(Cl)cc2)c2cc(Cl)ccc21 [Ro 5-4864, 4'-chlorodiazepam]
- high affinity binding to Alzheimer versus neurologically normal brain tissue [5]: greater high affinity binding to Alzheimer brain tissue than to neurologically normal brain tissue
- activity at 1 µM [2, 12]: 94.6 ± 12.2%
- activity at 10 µM [2, 12]: 85.4 ± 2.5%
- activity at 100 µM [2, 12]: 74.7 ± 1.9%
- Ki [1]: 178 nM

Reference: patent US5776946A, “Peripheral benzodiazepine receptor ligands as antiinflammatory agents” (priority 1995, dated 1998)
